Measured values taken from patent publication US20260085262A1, “ACQ FLUORESCENCE PROBE COMPOSITION, CMC DETERMINATION METHOD, STAIN CLEANING CONCENTRATION DETERMINATION METHOD, DETERGENT DISPENSING CONTROL METHOD, AND DETERGENT DISPENSING CONTROL SYSTEM” (GUANGZHOU BLUEMOON INDUSTRIAL CO., LTD., priority 2024, published 2026).

How the values were obtained:
[1] = Hansen solubility parameters (HSP), δ difference and HSP distance Ra
[2] = cited from earlier work; for Flash point / Viscosity / Volatility/Boiling point: solvent; for Solvent solubility in water: classified with reference to solvent data in Pub Chem
[3] = Solubility classification of probe molecule in solvent; conditions: ACQ probe molecule is CUR; label = solvent
[4] = document value; cited from earlier work
[5] = HSP distance between solvent and curcumin (CUR)
[6] = total δ of solvent minus total δ of curcumin (CUR)

Row | SMILES | Ra [1, 5] | δ difference [1, 6] | Flash point [2] [°C] | Viscosity [2] [mPa · s] | Volatility/Boiling point [2] [°C] | Probe solubility in solvent [3] | Solvent solubility in water [2] | Ra ([1]; HSP distance between solvent and rhodamine B) | δ difference ([1]; total δ of solvent minus total δ of rhodamine B) | Dispersion δD [4] | Hydrogen bonding δH [4] | Polarity δH [4] | Total δ [4]
1 | OCCCCCO [1,5-Pentanediol] | 6.580 (MPa)^1/2 | 4.118 (MPa)^1/2 | 129 | 128 | 242 | Soluble (0.01-0.1% is soluble) |  |  |  |  |  |  | 
2 | CCCCCC [n-Hexane] | 15.204 (MPa)^1/2 | −7.679 (MPa)^1/2 |  |  | 69 | Insoluble | Insoluble |  |  |  |  |  | 
3 | CCCCCCCCO [n-Octanol] | 3.753 (MPa)^1/2 | −2.022 (MPa)^1/2 | 81 | 8.93 | 195 | Soluble (0.01-0.1% is soluble) | Insoluble | 14.205 (MPa)^1/2 | −9.896 (MPa)^1/2 | 16 (MPa)^1/2 | 11.9 (MPa)^1/2 | 5 (MPa)^1/2 | 20.557 (MPa)^1/2
